Results published in patent US4508648A, “Phosphoric ester of antibiotic OA-6129” (Sanraku-Ocean Co., Ltd., priority 1981, dated 1985).
Converted amounts (≈) assume the structure as drawn. Like-named read-outs stand apart in the source and are kept apart here.

Key:
[1] = system: Enterobacter aerogenes E-19; assay: Minimum inhibitory concentration, agar dilution technique; format: cell-based; settings: Klebsiella aerogenes, E19; beta-lactam-resistant strain; heart infusion agar; inoculum 10^6 cells/ml; read-out: Minimum Inhibitory Concentration (M.I.C.)
Text: (§1) Minimum Inhibitory Concentration (M.I.C. in μg/ml)**
(§2) *Beta-lactam-resistant strain.
(§3) **Medium heartinfusion agar (Difco Lab.); inoculum size 10^6 cells/ml
(§4) determined by the agar dilution technique

Escherichia coli RGN823 = assay: as above; format: cell-based; settings: RGN823, read-out: Minimum Inhibitory Concentration (M.I.C.)
Text: as §1, §2, §3, §4

[2] = system: Klebsiella pneumoniae K13; assay: as above; format: cell-based
Text: as §1, §2, §3, §4

Proteus vulgaris GN76 = assay: as above; format: cell-based; settings: beta-lactam-resistant strain, heart infusion agar, inoculum 10^6 cells/ml, read-out: Minimum Inhibitory Concentration (M.I.C.)
Text: as §1, §2, §3, §4

Proteus sp. P-22 = assay: as above; format: cell-based; settings: beta-lactam-resistant strain; heart infusion agar; inoculum 10^6 cells/ml; read-out: Minimum Inhibitory Concentration (M.I.C.)
Text: as §1, §2, §3, §4

Serratia marcescens T55 = assay: as above; format: cell-based; settings: beta-lactam-resistant strain, heart infusion agar, inoculum 10^6 cells/ml, read-out: Minimum Inhibitory Concentration (M.I.C.)
Text: as §1, §2, §3, §4

Enterobacter cloacae 45 = assay: as above; format: cell-based; settings: beta-lactam-resistant strain, heart infusion agar, inoculum 10^6 cells/ml, read-out: Minimum Inhibitory Concentration (M.I.C.)
Text: as §1, §2, §3, §4

[3] = system: Citrobacter freundii GN346; assay: as above; format: cell-based; settings: beta-lactam-resistant strain, heart infusion agar, inoculum 10^6 cells/ml, read-out: Minimum Inhibitory Concentration (M.I.C.)
Text: as §1, §2, §3, §4

Serratia marcescens S-18 = assay: as above; format: cell-based
Text: as §1, §2, §3, §4

[4] = system: Pseudomonas aeruginosa NCTC 10490; assay: as above; format: cell-based; settings: NCTC10490, beta-lactam-resistant strain, heart infusion agar, inoculum 10^6 cells/ml, read-out: Minimum Inhibitory Concentration (M.I.C.)
Text: as §1, §2, §3, §4

[5] = system: Pseudomonas aeruginosa IFO 3445; assay: as above; format: cell-based; settings: IFO3445, beta-lactam-resistant strain, heart infusion agar, inoculum 10^6 cells/ml, read-out: Minimum Inhibitory Concentration (M.I.C.)
Text: as §1, §2, §3, §4

[6] = Relative stability in kidney homogenate of man; format: in vitro ADME; settings: human (man) kidney homogenate; 37° C., 60 minutes; drug solution 100-300 μg/ml; read-out: Relative stability: drug remaining as a percentage of initial concentration
Procedure: (§5) *A drug solution (100-300 μg/ml) (0.1 ml) and a kidney homogenate (0.1
(§6) ml) were allowed to react at 37° C. for 60 minutes and the mixture
(§7) was immediately heattreated at 100° C. for 15 seconds. After
(§8) centrifugation, the concentration of the drug remaining in the supernatan
(§9) solution was bioassayed as a percentage of initial concentration by
(§10) Comamonas terrigena B996.
(§11) An overnight culture of Comamonas terrigena B-996 on a nutrient agar slant was suspended in nutrient broth to give a cell suspension of absorbance 0.04 at 610 nm. One percent of the cell suspension in volume was inoculated into molten agar medium containing 0.8% in weight of Kyokuto powdered bouillon (Kyokuto Pharmaceutical Co.) and 1.0% in weight of Bato-agar (Difco Lab.), and 7 ml each of the inoculated agar medium was poured into a 9 cm petri dish to make a Comamonas assay plate.

[7] = Relative stability in phosphate buffer, pH 7.0 (control); format: physicochemical; settings: 37° C., 60 minutes, drug solution 100-300 μg/ml, read-out: Relative stability: drug remaining as a percentage of initial concentration
Procedure: as §5, §6, §7, §8, §9, §10, §11

[8] = Relative stability in kidney homogenate of mouse; format: in vitro ADME; settings: 37° C., 60 minutes, drug solution 100-300 μg/ml, read-out: Relative stability: drug remaining as a percentage of initial concentration
Procedure: as §5, §6, §7, §8, §9, §10, §11

[9] = system: Staphylococcus aureus 209P; assay: Minimum inhibitory concentration, agar dilution technique; format: cell-based; settings: read-out: Minimum Inhibitory Concentration (M.I.C.)
Text: as §1, §3, §4

Enterobacter sp. E-8 = assay: as above; format: cell-based; settings: SP.E8, heart infusion agar, inoculum 10^6 cells/ml, read-out: Minimum Inhibitory Concentration (M.I.C.)
Text: as §1, §3, §4

Providencia sp. P-8 = assay: as above; format: cell-based
Text: as §1, §3, §4

[10] = system: Comamonas terrigena B-996; assay: as above; format: cell-based; settings: B996, heart infusion agar, inoculum 10^6 cells/ml, read-out: Minimum Inhibitory Concentration (M.I.C.)
Text: as §1, §3, §4

Sarcina lutea = assay: as above; format: cell-based; settings: Micrococcus luteus; heart infusion agar; inoculum 10^6 cells/ml; read-out: Minimum Inhibitory Concentration (M.I.C.)
Text: as §1, §3, §4

[11] = system: Staphylococcus aureus Russell; assay: as above; format: cell-based; settings: heart infusion agar, inoculum 10^6 cells/ml, read-out: Minimum Inhibitory Concentration (M.I.C.)
Text: as §1, §3, §4

[12] = system: Bacillus subtilis ATCC 6633; assay: as above; format: cell-based
Text: as §1, §3, §4

[13] = system: Staphylococcus epidermidis; assay: as above; format: cell-based; settings: heart infusion agar, inoculum 10^6 cells/ml, read-out: Minimum Inhibitory Concentration (M.I.C.)
Text: as §1, §3, §4

Escherichia coli K-12 = assay: as above; format: cell-based; settings: K12, heart infusion agar, inoculum 10^6 cells/ml, read-out: Minimum Inhibitory Concentration (M.I.C.)
Text: as §1, §3, §4

Proteus rettgeri P-6 = assay: as above; format: cell-based; settings: Providencia rettgeri
Text: as §1, §3, §4

Alcaligenes faecalis A1 = assay: as above; format: cell-based; settings: heart infusion agar, inoculum 10^6 cells/ml, read-out: Minimum Inhibitory Concentration (M.I.C.)
Text: as §1, §3, §4

Proteus mirabilis P-6 = assay: as above; format: cell-based; settings: P6, heart infusion agar, inoculum 10^6 cells/ml, read-out: Minimum Inhibitory Concentration (M.I.C.)
Text: as §1, §3, §4

[14] = system: Staphylococcus aureus Smith; assay: as above; format: cell-based; settings: read-out: Minimum Inhibitory Concentration (M.I.C.)
Text: as §1, §3, §4

[15] = Relative stability in kidney homogenate of dog; format: in vitro ADME; settings: 37° C., 60 minutes, drug solution 100-300 μg/ml, read-out: Relative stability: drug remaining as a percentage of initial concentration
Procedure: as §5, §6, §7, §8, §9, §10, §11

[16] = K13, beta-lactam-resistant strain, heart infusion agar, inoculum 10^6 cells/ml, read-out: Minimum Inhibitory Concentration (M.I.C.)
[17] = S18, beta-lactam-resistant strain, heart infusion agar, inoculum 10^6 cells/ml, read-out: Minimum Inhibitory Concentration (M.I.C.)
[18] = heart infusion agar, inoculum 10^6 cells/ml
[19] = ATCC6633, heart infusion agar, inoculum 10^6 cells/ml, read-out: Minimum Inhibitory Concentration (M.I.C.)
[20] = P6, heart infusion agar, inoculum 10^6 cells/ml, read-out: Minimum Inhibitory Concentration (M.I.C.)
[21] = SP.P8, heart infusion agar, inoculum 10^6 cells/ml, read-out: Minimum Inhibitory Concentration (M.I.C.)

SMILES | MIC [1] [µg/mL] | MIC (Escherichia coli RGN823) [µg/mL] | MIC (Proteus vulgaris GN76) [µg/mL] | MIC (Proteus sp. P-22) [µg/mL] | MIC (Serratia marcescens T55) [µg/mL] | MIC (Enterobacter cloacae 45) [µg/mL] | MIC [3] [µg/mL] | MIC [4] [µg/mL] | MIC [5] [µg/mL] | remaining at 1 h [6] [%] | remaining at 1 h [7] [%] | remaining at 1 h [8] [%] | MIC (Enterobacter sp. E-8) [µg/mL] | MIC [10] [µg/mL] | MIC (Sarcina lutea) [µg/mL] | MIC [11] [µg/mL] | MIC [13] [µg/mL] | MIC (Escherichia coli K-12) [µg/mL] | MIC (Alcaligenes faecalis A1) [µg/mL] | MIC (Proteus mirabilis P-6) [µg/mL] | other results
CCC1C(=O)N2C(C(=O)O)=C(SCCNC(=O)CCNC(=O)C(O)C(C)(C)CO)CC12 (stereo not drawn) [Antibiotic OA-6129A] | 25 (≈ 54.6 µM) | 12.5 (≈ 27.3 µM) | 100 (≈ 219 µM) | 100 (≈ 219 µM) | 100 (≈ 219 µM) | 50 (≈ 109 µM) | 50 (≈ 109 µM) | > 100 | > 100 | 57 | 100 | 7 | 12.5 (≈ 27.3 µM) | 0.05 (≈ 0.109 µM) | 6.25 (≈ 13.7 µM) | 0.78 (≈ 1.7 µM) | 1.56 (≈ 3.41 µM) | 12.5 (≈ 27.3 µM) | 1.56 (≈ 3.41 µM) | 50 (≈ 109 µM) | MIC [2, 16]: 50 µg/mL (≈ 109 µM); MIC (Serratia marcescens S-18; [17]): 100 µg/mL (≈ 219 µM); MIC [9, 18]: 0.78 µg/mL (≈ 1.7 µM); MIC (Providencia sp. P-8; SP.P8, read-out: Minimum Inhibitory Concentration (M.I.C.)): 12.5 µg/mL (≈ 27.3 µM); MIC [12, 19]: 0.39 µg/mL (≈ 0.852 µM); MIC (Proteus rettgeri P-6; [20]): 25 µg/mL (≈ 54.6 µM); MIC [14, 18]: 1.56 µg/mL (≈ 3.41 µM); remaining at 1 h [15]: 25%
CCC1C(=O)N2C(C(=O)O)=C(SCCNC(=O)CCNC(=O)C(O)C(C)(C)COP(=O)(O)O)CC12 (stereo not drawn) [Phosphoric ester of antibiotic OA-6129A] | 12.5 (≈ 23.3 µM) | 3.13 (≈ 5.82 µM) | 25 (≈ 46.5 µM) | 25 (≈ 46.5 µM) | > 25 | 25 (≈ 46.5 µM) | > 25 | > 25 | > 25 | 96 | 114 | 47 | 3.13 (≈ 5.82 µM) | 0.05 (≈ 0.093 µM) | 6.25 (≈ 11.6 µM) | 6.25 (≈ 11.6 µM) | 6.25 (≈ 11.6 µM) | 3.13 (≈ 5.82 µM) | 1.56 (≈ 2.9 µM) | 25 (≈ 46.5 µM) | MIC [2, 16]: 25 µg/mL (≈ 46.5 µM); MIC (Serratia marcescens S-18; [17]): 25 µg/mL (≈ 46.5 µM); MIC [9, 18]: 1.56 µg/mL (≈ 2.9 µM); MIC (Providencia sp. P-8; [21]): 6.25 µg/mL (≈ 11.6 µM); MIC ([12]; ATCC6633, read-out: Minimum Inhibitory Concentration (M.I.C.)): 3.13 µg/mL (≈ 5.82 µM); MIC (Proteus rettgeri P-6; [20]): 12.5 µg/mL (≈ 23.3 µM); MIC [14]: 3.13 µg/mL (≈ 5.82 µM); remaining at 1 h [15]: 18%
CC(O)C1C(=O)N2C(C(=O)O)=C(SCCNC(=O)CCNC(=O)C(O)C(C)(C)COP(=O)(O)O)CC12 (stereo not drawn) [Phosphoric ester of antibiotic OA-6129B] | 25 (≈ 45.2 µM) | 12.5 (≈ 22.6 µM) | 25 (≈ 45.2 µM) | 25 (≈ 45.2 µM) | 25 (≈ 45.2 µM) | > 25 | > 25 | > 25 | > 25 | 72 | 100 | 42 | 12.5 (≈ 22.6 µM) | 0.39 (≈ 0.705 µM) | > 25 | > 25 | > 25 | 12.5 (≈ 22.6 µM) | 6.25 (≈ 11.3 µM) | 25 (≈ 45.2 µM) | MIC ([2]; K13, read-out: Minimum Inhibitory Concentration (M.I.C.)): 12.5 µg/mL (≈ 22.6 µM); MIC (Serratia marcescens S-18; S18, read-out: Minimum Inhibitory Concentration (M.I.C.)): 12.5 µg/mL (≈ 22.6 µM); MIC [9]: 12.5 µg/mL (≈ 22.6 µM); MIC (Providencia sp. P-8; [21]): 6.25 µg/mL (≈ 11.3 µM); MIC [12, 19]: 25 µg/mL (≈ 45.2 µM); MIC (Proteus rettgeri P-6; P6, read-out: Minimum Inhibitory Concentration (M.I.C.)): 12.5 µg/mL (≈ 22.6 µM); MIC [14, 18]: > 25 µg/mL; remaining at 1 h [15]: 29%
